Target: T1, recombinant Vps34 (Homo sapiens, UniProt Q8NEB9)
T1 construct: purchased Invitrogen PV5126
Test: Phosphorylation of phosphatidylinositol (PI) by Vps34 in vitro, ADP detected by TR-FRET (HTRF Transcreener ADP)
Type: biochemical
Details: 10 μM ATP, 55 μg/ml PI, approximately 3 nM Vps34, 1 hour at ambient temperature; absolute IC50, mean of two independent experiments; read-out: IC50 activity range

T1 sequence (Q8NEB9 whole entry): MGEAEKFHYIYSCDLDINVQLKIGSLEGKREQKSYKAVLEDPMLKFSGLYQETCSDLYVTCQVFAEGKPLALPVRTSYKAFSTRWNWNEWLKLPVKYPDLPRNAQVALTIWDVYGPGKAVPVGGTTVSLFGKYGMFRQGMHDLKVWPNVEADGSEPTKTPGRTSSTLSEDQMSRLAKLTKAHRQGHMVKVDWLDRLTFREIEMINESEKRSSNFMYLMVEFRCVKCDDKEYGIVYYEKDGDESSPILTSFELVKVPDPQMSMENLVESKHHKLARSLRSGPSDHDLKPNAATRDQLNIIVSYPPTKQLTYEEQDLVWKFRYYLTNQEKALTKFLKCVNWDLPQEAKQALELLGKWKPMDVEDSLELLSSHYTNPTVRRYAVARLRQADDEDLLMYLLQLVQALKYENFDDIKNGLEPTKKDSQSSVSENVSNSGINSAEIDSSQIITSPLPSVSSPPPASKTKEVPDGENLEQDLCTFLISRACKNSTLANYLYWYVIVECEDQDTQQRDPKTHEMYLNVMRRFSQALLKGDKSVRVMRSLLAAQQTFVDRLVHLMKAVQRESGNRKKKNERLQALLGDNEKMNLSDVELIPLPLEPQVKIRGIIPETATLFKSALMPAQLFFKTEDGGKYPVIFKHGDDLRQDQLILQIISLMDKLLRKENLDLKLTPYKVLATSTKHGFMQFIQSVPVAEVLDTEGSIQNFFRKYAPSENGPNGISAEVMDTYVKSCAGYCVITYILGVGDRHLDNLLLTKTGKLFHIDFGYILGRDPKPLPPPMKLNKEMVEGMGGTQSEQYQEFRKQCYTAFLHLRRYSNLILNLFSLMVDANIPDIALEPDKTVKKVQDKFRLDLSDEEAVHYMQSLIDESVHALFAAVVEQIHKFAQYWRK

SMILES | IC50
C[C@@H]1COCCN1c1cc(=O)n2c(n1)N(CC(=O)c1ccccc1)[C@H](C(F)(F)F)CC2 [Example 99, (S)-2-((R)-3-Methyl-morpholin-4-yl)-9-(2-oxo-2-phenylethyl)-8-trifluoromethyl-6,7,8,9-tetrahydro-pyrimido[1,2-a]-pyrimidin-4-one] | < 0.01 µM
CO[C@H](CN1c2nc(N3CCOC[C@H]3C)cc(=O)n2CC[C@H]1C(F)(F)F)c1ccccc1 [Example 100, (S)-9-((S)-2-Methoxy-2-phenylethyl)-2-((R)-3-methylmorpholin-4-yl)-8-trifluoromethyl-6,7,8,9-tetrahydro-pyrimido[1,2-a]-pyrimidin-4-one] | < 0.01 µM
Cc1cc(CN2c3nc(N4CCOC[C@H]4C)cc(=O)n3CC[C@H]2C(F)(F)F)on1 [Example 101, (S)-9-(3-Methyl-isoxazol-5-ylmethyl)-2-((R)-3-methyl-morpholin-4-yl)-8-trifluoromethyl-6,7,8,9-tetrahydro-pyrimido[1,2-a]-pyrimidin-4-one] | < 0.01 µM
C[C@@H]1COCCN1c1cc(=O)n2c(n1)N(CC(=O)c1ccccn1)CC[C@@H]2C(F)(F)F [Example 102, (R)-2-((R)-3-Methyl-morpholin-4-yl)-9-(2-oxo-2-pyridin-2-yl-ethyl)-6-trifluoromethyl-6,7,8,9-tetrahydro-pyrimido[1,2-a]-pyrimidin-4-one] | < 0.01 µM
C[C@@H]1COCCN1c1cc(=O)n2c(n1)N(Cc1cocn1)[C@H](C(F)(F)F)CC2 [Example 103, (S)-2-((R)-3-Methyl-morpholin-4-yl)-9-oxazol-4-ylmethyl-8-trifluoromethyl-6,7,8,9-tetrahydro-pyrimido[1,2-a]-pyrimidin-4-one] | < 0.01 µM
Cc1ccc(S(=O)(=O)N2c3nc(N4CCOC[C@H]4C)cc(=O)n3CC[C@H]2C(F)(F)F)cc1 [Example 104, (S)-2-((R)-3-Methyl-morpholin-4-yl)-9-(toluene-4-sulfonyl)-8-trifluoromethyl-6,7,8,9-tetrahydro-pyrimido[1,2-a]-pyrimidin-4-one] | 0.01 to 0.1 µM
C[C@@H]1COCCN1c1cc(=O)n2c(n1)N(Cc1ccno1)CC[C@@H]2C(F)(F)F [Example 105, (R)-9-Isoxazol-5-yl-methyl-2-((R)-3-methylmorpholin-4-yl)-6-trifluoromethyl-6,7,8,9-tetrahydro-pyrimido[1,2-a]-pyrimidin-4-one] | 0.01 to 0.1 µM
C[C@@H]1COCCN1c1cc(=O)n2c(n1)N(c1ccc(C3CC3)nc1)CC[C@@H]2C(F)(F)F [Example 107, (R)-9-(6-Cyclopropyl-pyridin-3-yl)-2-((R)-3-methylmorpholin-4-yl)-6-trifluoromethyl-6,7,8,9-tetrahydro-pyrimido[1,2-a]-pyrimidin-4-one] | < 0.01 µM
C[C@@H]1COCCN1c1cc(=O)n2c(n1)N(c1ccnc(Cl)c1)CC[C@@H]2C(F)(F)F [Example 108, (R)-9-(2-Chloro-pyridin-4-yl)-2-((R)-3-methylmorpholin-4-yl)-6-trifluoromethyl-6,7,8,9-tetrahydro-pyrimido[1,2-a]-pyrimidin-4-one] | < 0.01 µM
COc1cc(N2CC[C@H](C(F)(F)F)n3c2nc(N2CCOC[C@H]2C)cc3=O)ccn1 [Example 109, (R)-9-(2-Methoxy-pyridin-4-yl)-2-((R)-3-methylmorpholin-4-yl)-6-trifluoromethyl-6,7,8,9-tetrahydro-pyrimido[1,2-a]-pyrimidin-4-one] | < 0.01 µM
C[C@@H]1COCCN1c1cc(=O)n2c(n1)N(Cc1cocn1)CC[C@@H]2C(F)(F)F [Example 110, (R)-2-((R)-3-Methyl-morpholin-4-yl)-9-oxazol-4-ylmethyl-6-trifluoromethyl-6,7,8,9-tetrahydro-pyrimido[1,2-a]-pyrimidin-4-one] | 0.01 to 0.1 µM
C[C@@H]1COCCN1c1nc2n(c(=O)c1F)CC[C@@H](C(F)(F)F)N2Cc1cnco1 [Example 111, (S)-3-Fluoro-2-((R)-3-methylmorpholin-4-yl)-9-oxazol-5-ylmethyl-8-trifluoromethyl-6,7,8,9-tetrahydro-pyrimido[1,2-a]-pyrimidin-4-one] | < 0.01 µM
C[C@@H]1COCCN1c1cc(=O)n2c(n1)N(Cc1ccnc(Cl)c1)CC[C@@H]2C(F)(F)F [Example 112, (R)-9-(2-Chloro-pyridin-4-ylmethyl)-2-((R)-3-methyl-morpholin-4-yl)-6-trifluoromethyl-6,7,8,9-tetrahydro-pyrimido[1,2-a]-pyrimidin-4-one] | < 0.01 µM
C[C@@H]1COCCN1c1cc(=O)n2c(n1)N(CC(C)(C)O)CC[C@@H]2C(F)(F)F [Example 113, (R)-9-(2-Hydroxy-2-methylpropyl)-2-((R)-3-methylmorpholin-4-yl)-6-trifluoromethyl-6,7,8,9-tetrahydro-pyrimido[1,2-a]-pyrimidin-4-one] | 0.01 to 0.1 µM
CC(C)Oc1cc(N2CC[C@H](C(F)(F)F)n3c2nc(N2CCOC[C@H]2C)cc3=O)ccn1 [Example 114, (R)-9-(2-Isopropoxy-pyridin-4-yl)-2-((R)-3-methylmorpholin-4-yl)-6-trifluoromethyl-6,7,8,9-tetrahydro-pyrimido[1,2-a]-pyrimidin-4-one] | < 0.01 µM
C[C@@H]1COCCN1c1cc(=O)n2c(n1)N(Cc1ccc(Cl)nc1)CC[C@@H]2C(F)(F)F [Example 115, (R)-9-(6-Chloro-pyridin-3-ylmethyl)-2-((R)-3-methyl-morpholin-4-yl)-6-trifluoromethyl-6,7,8,9-tetrahydro-pyrimido[1,2-a]-pyrimidin-4-one] | < 0.01 µM
CC(C)Oc1ccc(N2CC[C@H](C(F)(F)F)n3c2nc(N2CCOC[C@H]2C)cc3=O)cn1 [Example 116, (R)-9-(6-Isopropoxy-pyridin-3-yl)-2-((R)-3-methylmorpholin-4-yl)-6-trifluoromethyl-6,7,8,9-tetrahydro-pyrimido[1,2-a]-pyrimidin-4-one] | < 0.01 µM
C[C@@H]1COCCN1c1cc(=O)n2c(n1)N(Cc1cnco1)CC[C@@H]2C(F)(F)F [Example 117, (R)-2-((R)-3-Methyl-morpholin-4-yl)-9-oxazol-5-ylmethyl-6-trifluoromethyl-6,7,8,9-tetrahydro-pyrimido[1,2-a]-pyrimidin-4-one] | 0.01 to 0.1 µM
C[C@@H]1COCCN1c1cc(=O)n2c(n1)N(CC(=O)C1CC1)CC[C@@H]2C(F)(F)F [Example 118, (R)-9-(2-Cyclopropyl-2-oxoethyl)-2-((R)-3-methylmorpholin-4-yl)-6-trifluoromethyl-6,7,8,9-tetrahydro-pyrimido[1,2-a]-pyrimidin-4-one] | < 0.01 µM
COc1cc(N2CC[C@H](C(F)(F)F)n3c2nc(N2CCOC[C@H]2C)c(F)c3=O)ccn1 [Example 119, (R)-3-Fluoro-9-(2-methoxypyridin-4-yl)-2-((R)-3-methyl-morpholin-4-yl)-6-trifluoromethyl-6,7,8,9-tetrahydro-pyrimido[1,2-a]-pyrimidin-4-one] | < 0.01 µM
C[C@@H]1COCCN1c1nc2n(c(=O)c1F)[C@@H](C(F)(F)F)CCN2CC(=O)C1CC1 [Example 120, (R)-9-(2-Cyclopropyl-2-oxoethyl)-3-fluoro-2-((R)-3-methyl-morpholin-4-yl)-6-trifluoromethyl-6,7,8,9-tetrahydro-pyrimido[1,2-a]-pyrimidin-4-one] | < 0.01 µM
C[C@@H]1COCCN1c1nc2n(c(=O)c1F)[C@@H](C(F)(F)F)CCN2c1ccc(C(F)F)nc1 [Example 121, (R)-9-(6-Difluoromethylpyridin-3-yl)-3-fluoro-2-((R)-3-methylmorpholin-4-yl)-6-trifluoromethyl-6,7,8,9-tetrahydro-pyrimido[1,2-a]-pyrimidin-4-one] | < 0.01 µM
C[C@@H]1COCCN1c1nc2n(c(=O)c1F)[C@@H](C(F)(F)F)CCN2c1ccnc(Cl)c1 [Example 122, (R)-9-(2-Chloro-pyridin-4-yl)-3-fluoro-2-((R)-3-methyl-morpholin-4-yl)-6-trifluoromethyl-6,7,8,9-tetrahydro-pyrimido[1,2-a]-pyrimidin-4-one] | < 0.01 µM
Cc1nnc(CN2c3nc(N4CCOC[C@H]4C)cc(=O)n3CC[C@H]2C(F)(F)F)s1 [Example 123, (S)-2-((R)-3-Methyl-morpholin-4-yl)-9-(5-methyl-[1,3,4]thiadiazol-2-yl-methyl)-8-trifluoromethyl-6,7,8,9-tetrahydro-pyrimido[1,2-a]-pyrimidin-4-one] | 0.01 to 0.1 µM
C[C@@H]1COCCN1c1cc(=O)n2c(n1)N(c1ccc(OC(F)F)nc1)[C@H](C(F)(F)F)CC2 [Example 124, (S)-9-(6-Difluoromethoxy-pyridin-3-yl)-2-((R)-3-methylmorpholin-4-yl)-8-trifluoromethyl-6,7,8,9-tetrahydro-pyrimido[1,2-a]-pyrimidin-4-one] | < 0.01 µM
Cc1nnsc1CN1c2nc(N3CCOC[C@H]3C)cc(=O)n2CC[C@H]1C(F)(F)F [Example 125, (S)-2-((R)-3-Methyl-morpholin-4-yl)-9-(4-methyl-[1,2,3]thiadiazol-5-yl-methyl)-8-trifluoromethyl-6,7,8,9-tetrahydro-pyrimido[1,2-a]-pyrimidin-4-one] | 0.01 to 0.1 µM
C[C@@H]1COCCN1c1nc2n(c(=O)c1F)[C@@H](C(F)(F)F)CCN2CC(=O)c1cccnc1 [Example 126, (R)-3-Fluoro-2-((R)-3-methylmorpholin-4-yl)-9-(2-oxo-2-pyridin-3-ylethyl)-6-trifluoromethyl-6,7,8,9-tetrahydro-pyrimido[1,2-a]-pyrimidin-4-one] | < 0.01 µM
C[C@@H]1COCCN1c1nc2n(c(=O)c1F)[C@@H](C(F)(F)F)CCN2c1ccc(OC(F)F)nc1 [Example 127, (R)-9-(6-Difluoromethoxy-pyridin-3-yl)-3-fluoro-2-((R)-3-methyl-morpholin-4-yl)-6-trifluoromethyl-6,7,8,9-tetrahydro-pyrimido[1,2-a]-pyrimidin-4-one] | < 0.01 µM
CC(C)C(=O)CN1CC[C@H](C(F)(F)F)n2c1nc(N1CCOC[C@H]1C)c(F)c2=O [Example 128, (R)-3-Fluoro-2-((R)-3-methylmorpholin-4-yl)-9-(3-methyl-2-oxo-butyl)-6-trifluoromethyl-6,7,8,9-tetrahydro-pyrimido[1,2-a]-pyrimidin-4-one] | < 0.01 µM
